The values that follow are results of earlier work, collected in patent publication US10196359B2, “2-alkyloxy benzene formyl arylamine compound and pharmaceutical use thereof” (FUDAN UNIVERSITY, priority 2014, dated 2019).

This data set relates to SMS. Conditions: reference value; read-out: IC50 (SMS inhibitory activity); cited from earlier work.

By IC50 is commonly meant the concentration that gives 50% inhibition. `S=C(S)OC1CC2CC1C1CCCC21` (stereo not shown) [Scheme D609]: the IC50 was 375 µM.
